ChEMBL document CHEMBL4000203, “Green synthesis and anticancer potential of chalcone linked-1,2,3-triazoles” (Eur J Med Chem, 2017)
pIC50: −log10 of the molar value. The source made the active and inactive calls. The rule behind the calls is not given here.

Legend:
[1] = Cytotoxicity against human FR2 cells assessed as growth inhibition at 10 uM measured after 48 hrs by MTT assay relative to control; type: cell-based; conditions: for inhibition at 48 h, 10 µM: FR2 cells, read-out: GI; for growth inhibition (GI): fr2, 48 h, 10 µM
MCF7 [2] = assay: Cytotoxicity against human MCF7 cells assessed as growth inhibition at 10 uM measured after 48 hrs by MTT assay relative to control; type: functional; conditions: for inhibition of growth at 10 µM: MCF7, 48 h, read-out: GI
A549 [3] = assay: Cytotoxicity against human A549 cells assessed as growth inhibition at 10 uM measured after 48 hrs by MTT assay relative to control; type: functional; conditions: for inhibition of growth at 10 µM: A549, 48 h, read-out: GI
HepG2 [4] = assay: Cytotoxicity against human HepG2 cells assessed as growth inhibition at 10 uM measured after 48 hrs by MTT assay relative to control; type: functional; conditions: for inhibition of growth at 10 µM: HepG2, 48 h, read-out: GI
MIA PaCa-2 [5] = assay: Cytotoxicity against human MIAPaCa2 cells assessed as growth inhibition at 10 uM measured after 48 hrs by MTT assay relative to control; type: functional; conditions: for inhibition of growth at 10 µM: MIA PaCa-2, 48 h, read-out: GI
MCF7 [6] = assay: Cytotoxicity against human MCF7 cells measured after 48 hrs by MTT assay; type: functional, cell-based; conditions: MCF7, 48 h
MIA PaCa-2 [7] = assay: Cytotoxicity against human MIAPaCa2 cells measured after 48 hrs by MTT assay; type: functional, cell-based; conditions: MIA PaCa-2, 48 h
HepG2 [8] = assay: Cytotoxicity against human HepG2 cells measured after 48 hrs by MTT assay; type: functional, cell-based; conditions: HepG2, 48 h
A549 [9] = assay: Cytotoxicity against human A549 cells measured after 48 hrs by MTT assay; type: functional, cell-based; conditions: A549, 48 h
[10] = Cytotoxicity against human FR2 cells measured after 48 hrs by MTT assay; type: cell-based; conditions: FR2, 48 h

Structure (SMILES) | inhibition at 48 h, 10 µM [1] [%] | inhibition of growth at 10 µM (MCF7 [2]) [%] | inhibition of growth at 10 µM (A549 [3]) [%] | inhibition of growth at 10 µM (HepG2 [4]) [%] | inhibition of growth at 10 µM (MIA PaCa-2 [5]) [%] | growth inhibition (GI) [1] | growth inhibition (GI) (MCF7 [2]) | growth inhibition (GI) (A549 [3]) | growth inhibition (GI) (HepG2 [4]) | growth inhibition (GI) (MIA PaCa-2 [5]) | pIC50 (MCF7 [6]) | pIC50 (MIA PaCa-2 [7]) | pIC50 (HepG2 [8]) | pIC50 (A549 [9]) | pIC50 [10]
O=C(/C=C/c1ccc(OCc2cn(Cc3ccc(F)cc3)nn2)cc1)c1ccc(Br)cc1 | 7 | 37 | 43 | 22 | 32 | – | – | – | – | – | – | – | – | – | –
O=C(/C=C/c1ccc(OCc2cn(Cc3ccccc3)nn2)cc1)c1ccc([N+](=O)[O-])cc1 | – | – | – | – | – | Non-Toxic | inactive | inactive | inactive | inactive | – | – | – | – | –
COc1ccc(C(=O)/C=C/c2ccc(OCc3cn(Cc4ccc(F)cc4)nn3)cc2)cc1 | – | 15 | 33 | 21 | 6 | Non-Toxic | – | – | – | – | – | – | – | – | –
O=C(/C=C/c1ccc(OCc2cn(Cc3cccc(Br)c3)nn2)cc1)c1ccc(Br)cc1 | 9 | 36 | 44 | 25 | 43 | – | – | – | – | – | – | – | – | – | –
COc1ccc(C(=O)/C=C/c2ccc(OCc3cn(Cc4cccc(F)c4)nn3)cc2)cc1 | 12 | 41 | 56 | 22 | 48 | – | – | – | – | – | 4.26 | 4.82 | 4.07 | 5.05 | < 4.00
COc1ccc(C(=O)/C=C/c2ccc(OCc3cn(Cc4ccccc4F)nn3)cc2)cc1 | 11 | 32 | 21 | 33 | 19 | – | – | – | – | – | – | – | – | – | –
COc1ccc(C(=O)/C=C/c2ccc(OCc3cn(Cc4ccc(Br)cc4)nn3)cc2)cc1 | 2 | 53 | 50 | 59 | 56 | – | – | – | – | – | 5.05 | 5.10 | 5.10 | 5.00 | < 4.00
C#CCOc1ccc(/C=C/C(=O)c2ccc([N+](=O)[O-])cc2)cc1 | 2 | 44 | 33 | 27 | 42 | – | – | – | – | – | – | – | – | – | –
O=C(/C=C/c1ccc(OCc2cn(Cc3cccc(Br)c3)nn2)cc1)c1ccc([N+](=O)[O-])cc1 | 4 | 12 | 28 | 13 | 21 | – | – | – | – | – | – | – | – | – | –
C#CCOc1ccc(/C=C/C(=O)c2ccc(OC)cc2)cc1 | 8 | 32 | 27 | 25 | 32 | – | – | – | – | – | – | – | – | – | –
O=C(/C=C/c1ccc(OCc2cn(Cc3cccc(F)c3)nn2)cc1)c1ccc(Br)cc1 | 4 | 42 | 37 | 34 | 34 | – | – | – | – | – | – | – | – | – | –
O=C(/C=C/c1ccc(OCc2cn(Cc3ccc(Br)cc3)nn2)cc1)c1ccc(Br)cc1 | 11 | 23 | 27 | 22 | 29 | – | – | – | – | – | – | – | – | – | –
Oc1cccc(-c2nc(N3CCOCC3)c3oc4ncccc4c3n2)c1 [PI-103] | 25 | 97 | 89 | 65 | 93 | – | – | – | – | – | 5.52 | 5.22 | 5.10 | 5.40 | < 4.30
O=C(/C=C/c1ccc(OCc2cn(Cc3ccccc3F)nn2)cc1)c1ccc(Br)cc1 | 8 | 38 | 38 | 29 | 28 | – | – | – | – | – | – | – | – | – | –
O=C(/C=C/c1ccc(OCc2cn(Cc3ccc(F)cc3)nn2)cc1)c1ccc([N+](=O)[O-])cc1 | 8 | 38 | 34 | 25 | 44 | – | – | – | – | – | – | – | – | – | –
O=C(/C=C/c1ccc(OCc2cn(Cc3ccccc3Br)nn2)cc1)c1ccc(Br)cc1 | 11 | 44 | 44 | 34 | 43 | – | – | – | – | – | – | – | – | – | –
O=C(/C=C/c1ccc(OCc2cn(Cc3ccccc3F)nn2)cc1)c1ccc([N+](=O)[O-])cc1 | 12 | 33 | 43 | 22 | 22 | – | – | – | – | – | – | – | – | – | –
COc1ccc(C(=O)/C=C/c2ccc(OCc3cn(Cc4cccc(Br)c4)nn3)cc2)cc1 | 3 | 45 | 47 | 27 | 50 | – | – | – | – | – | 4.70 | 5.00 | 4.22 | 4.82 | < 4.00
COc1ccc(C(=O)/C=C/c2ccc(OCc3cn(Cc4ccccc4Br)nn3)cc2)cc1 | 7 | 60 | 52 | 44 | 50 | – | – | – | – | – | 5.15 | 5.00 | 4.70 | 5.00 | < 4.00
O=C(/C=C/c1ccc(OCc2cn(Cc3ccccc3)nn2)cc1)c1ccc(Br)cc1 | 7 | 34 | 34 | 22 | 44 | – | – | – | – | – | – | – | – | – | –
O=C(/C=C/c1ccc(OCc2cn(Cc3ccc(Br)cc3)nn2)cc1)c1ccc([N+](=O)[O-])cc1 | 10 | 18 | 18 | 21 | 17 | – | – | – | – | – | – | – | – | – | –
C#CCOc1ccc(/C=C/C(=O)c2ccc(Br)cc2)cc1 | 9 | 45 | 34 | 22 | 34 | – | – | – | – | – | – | – | – | – | –
O=C(/C=C/c1ccc(OCc2cn(Cc3ccccc3Br)nn2)cc1)c1ccc([N+](=O)[O-])cc1 | 2 | 43 | 42 | 32 | 34 | – | – | – | – | – | – | – | – | – | –
O=C(/C=C/c1ccc(OCc2cn(Cc3cccc(F)c3)nn2)cc1)c1ccc([N+](=O)[O-])cc1 | 5 | 30 | 33 | 43 | 32 | – | – | – | – | – | – | – | – | – | –
